Test results as given in patent US20130165396A1, “Apple Skin Extracts for Treating Cardiovascular Disease” (NATIONAL RESEARCH COUNCIL OF CANADA, priority 2010, published 2013).
Marks after values point to notes of the source that are not given here.

Experiments:
Type in all cases: biochemical
[1] = tested on: LDL isolated from human plasma; assay: TBARS assay, Cu2+-induced LDL oxidation
Protocol: (§1) To remove the inherent antioxidants, purchased LDL was dialyzed using Fisherbrand cellulose dialysis tubing (type T3 membrane, Thermo Fisher Scientific Inc., Ottawa, ON, Canada) against PBS containing 0.138 M NaCl and 0.0027 M KCl (pH 7.4, at 25° C.) at 4° C. for 24 hours. The buffer was changed every six hours. The dialyzed LDL was immediately used or stored at −80° C. in the dark under nitrogen and used within two to three weeks. Protein content of the dialyzed LDL was measured by the Lowry's method (Lowry et al., J. Biol. Chem., 1951, 193: […]) using bovine serum albumin as the standard.
(§2) Two oxidation induction methods were used: copper sulfate and 2,2′-azobis(2-methylpropionamidine)dihydrochloride (AAPH). For both induction systems, 100 μg/mL of final LDL protein concentration was used. LDL was oxidized at the presence of 10 μM final concentration of Cu^2+and 5 mM final concentration of AAPH separately at 37° C. for 4 h in the dark. […] Oxidation was terminated by adding a 1:1 mixture of 1 mM solution of ethylenediaminetetraacetic acid (EDTA) and 1 mM solution of butylated hydroxytoluene (BHT).
(§3) Two main constituents of TAE and oleanolic acid, which is an isomer of ursolic acid, were also used to investigate the concentration-responsiveness. The same concentrations of Cu^2+ and AAPH were used and the oxidation was terminated by a 1:1 mixture of EDTA and BHT as explained earlier under this section.
(§4) TBARS were measured according to the method of Xu et al., J. Food Sci., 2007, 72: S522-S527 with slight modifications. […] The mixture was incubated at 95° C. for 30 min to develop a pink chromogen. After cooling to room temperature tubes were centrifuged at 1500 g for 15 min and the fluorescence was measured using the FLUOstar OPTIMA plate reader (BMG Labtech Inc. Canada). Excitation and emission wavelengths used were 532 and 590 nm, respectively. TBARS activity was expressed as the percent inhibition (Equation 1) of LDL oxidation with comparison to the positive control, where F is fluorescence:
(§5) Percent inhibition (%)=100(Fpositive control−Fsample)/(Fpositive control) (1)

[2] = tested on: LDL isolated from human plasma; assay: In vitro LDL oxidation inhibition, statements covering both induction systems or both product types; details: for Pro-oxidant effect (statement): 5-50 mg L^−1
Protocol: as §2, §3
TBARS were measured according to the method of Xu et al., J. Food Sci., 2007, 72: S522-S527 with slight modifications. […]. The mixture was incubated at 95° C. for 30 min to develop a pink chromogen. After cooling to room temperature tubes were centrifuged at 1500 g for 15 min and the fluorescence was measured using the FLUOstar OPTIMA plate reader (BMG Labtech Inc. Canada). Excitation and emission wavelengths used were 532 and 590 nm, respectively. TBARS activity was expressed as the percent inhibition (Equation 1) of LDL oxidation with comparison to the positive control, where F is fluorescence:
The formation of hydroperoxides was measured by the lipid compatible formulation of the Peroxoquant™ quantitative peroxide assay kit. LDL oxidation was induced by Cu^2+ or AAPH and incubated for 4 hrs at 37° C. in the dark. Hydroperoxides were measured following the manufacturer's instructions. Absorbance was measured at 595 nm using FLUOstar OPTIMA plate reader (BMG Labtech, Durham, N.C., USA). Activity of hydroperoxides was expressed as the percent inhibition of LDL with comparison to the positive control (Equation 1).

[3] = tested on: LDL isolated from human plasma; assay: TBARS assay, AAPH-induced LDL oxidation
Protocol: as §1, §2, §3, §4, §5

[4] = 50 mg L^−1, comparison of constituent compounds and metabolites (Table 4)

| Compound | Percent inhibition of secondary LDL oxidation products, Cu induction ([1]; 0.0005 mg L^−1) | Percent inhibition of secondary LDL oxidation products, Cu induction ([1]; 0.001 mg L^−1) | Percent inhibition of secondary LDL oxidation products, Cu induction ([1]; 0.005 mg L^−1) | Percent inhibition of secondary LDL oxidation products, Cu induction ([1]; 0.01 mg L^−1) | Percent inhibition of secondary LDL oxidation products, Cu induction ([1]; 0.5 mg L^−1) | Percent inhibition of secondary LDL oxidation products, Cu induction ([1]; 1 mg L^−1) | Percent inhibition of secondary LDL oxidation products, Cu induction ([1]; 5 mg L^−1) | Percent inhibition of secondary LDL oxidation products, Cu induction ([1]; 10 mg L^−1) | Percent inhibition of secondary LDL oxidation products, Cu induction ([1]; 25 mg L^−1) | Percent inhibition of secondary LDL oxidation products, Cu induction ([1]; 50 mg L^−1) | Percent inhibition of secondary LDL oxidation products, Cu induction [1, 4] | Pro-oxidant effect (statement) [2] | Percent inhibition of secondary LDL oxidation products, AAPH induction ([3]; 0.0005 mg L^−1) | Percent inhibition of secondary LDL oxidation products, AAPH induction ([3]; 0.001 mg L^−1) | Percent inhibition of secondary LDL oxidation products, AAPH induction ([3]; 0.005 mg L^−1) | Percent inhibition of secondary LDL oxidation products, AAPH induction ([3]; 0.01 mg L^−1) | Percent inhibition of secondary LDL oxidation products, AAPH induction ([3]; 0.5 mg L^−1) | Percent inhibition of secondary LDL oxidation products, AAPH induction ([3]; 1 mg L^−1) | Percent inhibition of secondary LDL oxidation products, AAPH induction ([3]; 5 mg L^−1) | Percent inhibition of secondary LDL oxidation products, AAPH induction ([3]; 10 mg L^−1) | further results |
| --- | --- | --- | --- | --- | --- | --- | --- | --- | --- | --- | --- | --- | --- | --- | --- | --- | --- | --- | --- | --- | --- |
| O=c1c(O[C@@H]2O[C@H](CO)[C@H](O)[C@H](O)[C@H]2O)c(-c2ccc(O)c(O)c2)oc2cc(O)cc(O)c12 [Quercetin-3-O-galactoside] | 6.39 ± 2.33^c % | 4.88 ± 0.76^c % | 4.64 ± 1.50^c % | −6.51 ± 2.90^d % | 6.20 ± 1.77^c % | 27.61 ± 0.58^b % | 87.87 ± 0.32^a % | 89.88 ± 0.50^a % | 91.49 ± 0.88^a % | 92.73 ± 0.56^a % | 105.34 ± 0.30^ab % | did not show any pro-oxidant effect | −29.51 ± 2.43^c % | −64.01 ± 6.16^c % | −35.63 ± 5.21^c % | −34.82 ± 4.98^c % | 37.82 ± 7.30^b % | 49.08 ± 3.10^b % | 88.62 ± 2.58^a % | 86.65 ± 1.82^a % | LDL oxidation inhibition for both the induction systems ([2]; concentrations greater than 5 mg L^−1): more than 85%; Percent inhibition of secondary LDL oxidation products, AAPH induction ([3]; 25 mg L^−1): 85.58 ± 2.24^a %; Percent inhibition of secondary LDL oxidation products, AAPH induction ([3]; 50 mg L^−1): 92.23 ± 1.87^a %; Percent inhibition of secondary LDL oxidation products, AAPH induction [3, 4]: 141.68 ± 1.43^a % |
| O=C(O)[C@H]1O[C@@H](Oc2c(-c3ccc(O)c(O)c3)oc3cc(O)cc(O)c3c2=O)[C@H](O)[C@@H](O)[C@@H]1O [Quercetin-3-glucuronic acid] | 10.73 ± 1.68^e % | 23.06 ± 2.97^d % | 15.68 ± 2.22^e % | 14.85 ± 0.80^e % | 71.09 ± 1.34^c % | 88.59 ± 0.21^b % | 90.37 ± 2.31^b % | 94.2 ± 31.32^ab % | 95.24 ± 0.71^ab % | 98.64 ± 0.47^a % | 49.40 ± 2.04^d % | did not show any pro-oxidant effect | 11.79 ± 2.10^f % | 26.29 ± 1.68^d % | 24.12 ± 1.53^de % | −1.96 ± 3.37^g % | 4.32 ± 1.18^fg % | 13.31 ± 1.79^ef % | 55.17 ± 0.33^c % | 80.74 ± 3.27^a % | Protection against LDL oxidation, quercetin metabolites (statement) ([2]; 50 mg L^−1): best protection; Percent inhibition of secondary LDL oxidation products, AAPH induction ([3]; 25 mg L^−1): 66.69 ± 2.41^b %; Percent inhibition of secondary LDL oxidation products, AAPH induction ([3]; 50 mg L^−1): 72.00 ± 0.97^ab %; Percent inhibition of secondary LDL oxidation products, AAPH induction [3, 4]: 74.24 ± 1.36^d % |
